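Five concentrations, 48 hours, 96-well plates. GI50 marks 50% less growth.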 The source made the active and inactive calls. No stated cut-off is given here; in the data, active = GI50 up to about 1.1 µM and inactive = higher.
Assays:
Experiment in all cases: NCI anticancer screen, dose series, 48 h
MCF7 = tested on: MCF7
SW-620 = tested on: SW-620
Malme-3M = tested on: Malme-3M
TK-10 = tested on: TK-10
MOLT-4 = tested on: MOLT-4
OVCAR-3 = tested on: OVCAR-3
786-0 = tested on: 786-0
SR = tested on: SR
SNB-75 = tested on: SNB-75
COLO 205 = tested on: COLO 205
IGROV-1 = tested on: IGROV-1
SK-MEL-28 = tested on: SK-MEL-28
OVCAR-5 = tested on: OVCAR-5
SK-OV-3 = tested on: SK-OV-3
RXF 393 = tested on: RXF 393
CAKI-1 = tested on: CAKI-1
ACHN = tested on: ACHN
SK-MEL-5 = tested on: SK-MEL-5
NCI-H23 = tested on: NCI-H23
M14 = tested on: M14

| Compound | GI50 (MCF7) | GI50 (SW-620) | GI50 (Malme-3M) | GI50 (TK-10) | GI50 (MOLT-4) | GI50 (OVCAR-3) | GI50 (786-0) | GI50 (SR) | GI50 (SNB-75) | GI50 (COLO 205) | GI50 (IGROV-1) | GI50 (SK-MEL-28) | GI50 (OVCAR-5) | GI50 (SK-OV-3) | GI50 (RXF 393) | GI50 (CAKI-1) | GI50 (ACHN) | GI50 (SK-MEL-5) | GI50 (NCI-H23) | GI50 (M14) |
| --- | --- | --- | --- | --- | --- | --- | --- | --- | --- | --- | --- | --- | --- | --- | --- | --- | --- | --- | --- | --- |
| C(=N\c1ccc(-c2cc(-c3ccccc3)nc3ccc4ccccc4c23)cc1)/c1ccccc1 | 9.25 µM (inactive) | 26.2 µM (inactive) | 30.5 µM (inactive) | 22.3 µM (inactive) | 18.6 µM (inactive) | 20.4 µM (inactive) | 19.5 µM (inactive) | 10.2 µM (inactive) | 1.18 µM (inactive) | 13.6 µM (inactive) | 37.3 µM (inactive) | 14.1 µM (inactive) | 56.1 µM (inactive) | 30.3 µM (inactive) | 9.68 µM (inactive) | 23.3 µM (inactive) | 34.6 µM (inactive) | 17.4 µM (inactive) | 27.6 µM (inactive) | 18.1 µM (inactive) |
| COc1ccc2c(c1)[n+]([O-])c(/C(C)=N/NC(N)=S)c(C)[n+]2[O-] | 41.4 µM (inactive) | 50.4 µM (inactive) | 75.7 µM (inactive) | > 58.9 µM (inactive) | 17.8 µM (inactive) | 33.9 µM (inactive) | 43.6 µM (inactive) | 2 µM (inactive) | 79.4 µM (inactive) | 38.8 µM (inactive) | > 88.1 µM (inactive) | > 56.2 µM (inactive) | > 88.5 µM (inactive) | > 100 µM (inactive) | > 72.9 µM (inactive) | 70.5 µM (inactive) | 38.5 µM (inactive) | 41.2 µM (inactive) | > 67.9 µM (inactive) | 37.6 µM (inactive) |
| Cc1ccc(S(=O)(=O)C2=c3ncccc3=C3C(=O)c4ccccc4C(=O)C32)cc1 (stereo not given) | > 71.9 µM (inactive) | > 100 µM (inactive) | 53.7 µM (inactive) | 8.65 µM (inactive) | > 100 µM (inactive) | 55.8 µM (inactive) | 28.4 µM (inactive) | > 100 µM (inactive) | 52.6 µM (inactive) | > 100 µM (inactive) | 13.9 µM (inactive) | > 100 µM (inactive) | > 10 µM (inactive) | 38.2 µM (inactive) | 16 µM (inactive) | 64.6 µM (inactive) | 51.3 µM (inactive) | 2.79 µM (inactive) | 64 µM (inactive) | > 100 µM (inactive) |
| COc1ccc(CCn2cnc3ccccc32)cc1 | > 100 µM (inactive) | > 100 µM (inactive) | > 100 µM (inactive) | > 100 µM (inactive) | > 100 µM (inactive) | > 100 µM (inactive) | > 100 µM (inactive) | > 100 µM (inactive) | > 100 µM (inactive) | > 100 µM (inactive) | > 100 µM (inactive) | – | > 100 µM (inactive) | > 100 µM (inactive) | > 100 µM (inactive) | > 100 µM (inactive) | > 100 µM (inactive) | > 100 µM (inactive) | > 100 µM (inactive) | > 100 µM (inactive) |
| CC(C)(C)OC(=O)N1CCCC1C(=O)NC(c1ccccc1)c1ccccc1 (stereo not given) | > 100 µM (inactive) | > 100 µM (inactive) | > 100 µM (inactive) | > 100 µM (inactive) | > 100 µM (inactive) | > 100 µM (inactive) | > 100 µM (inactive) | > 100 µM (inactive) | > 100 µM (inactive) | > 100 µM (inactive) | > 100 µM (inactive) | > 100 µM (inactive) | > 100 µM (inactive) | > 100 µM (inactive) | > 100 µM (inactive) | > 100 µM (inactive) | > 100 µM (inactive) | > 100 µM (inactive) | > 100 µM (inactive) | > 100 µM (inactive) |
| C=C(CC[C@@H](C)[C@H]1CC[C@@]2(C)C3=C(CC[C@]12C)[C@@]1(C)CC[C@H](O)[C@@H](C)C1CC3)C(C)C (stereo not given in full) | 1.47 µM (inactive) | 1.71 µM (inactive) | 1.29 µM (inactive) | 1.35 µM (inactive) | 0.953 µM (active) | 1.77 µM (inactive) | 0.984 µM (active) | 1.01 µM (active) | 1.25 µM (inactive) | 1.17 µM (inactive) | 2.35 µM (inactive) | 1.28 µM (inactive) | 1.42 µM (inactive) | 1.6 µM (inactive) | 1.37 µM (inactive) | 1.15 µM (inactive) | 1.38 µM (inactive) | 1.26 µM (inactive) | 1.28 µM (inactive) | 1.17 µM (inactive) |
| CN(NC(=O)c1ccc(Cl)cc1)C1=NCCCCN1 | > 100 µM (inactive) | > 100 µM (inactive) | > 100 µM (inactive) | > 100 µM (inactive) | > 100 µM (inactive) | > 100 µM (inactive) | > 100 µM (inactive) | > 100 µM (inactive) | > 100 µM (inactive) | > 100 µM (inactive) | > 100 µM (inactive) | > 100 µM (inactive) | > 100 µM (inactive) | > 100 µM (inactive) | > 100 µM (inactive) | > 100 µM (inactive) | > 100 µM (inactive) | > 100 µM (inactive) | > 100 µM (inactive) | > 100 µM (inactive) |
| COC(=O)C1(C)OC(C)=NC1(C(=O)OC)C(=O)OC (stereo not given) | > 100 µM (inactive) | > 100 µM (inactive) | > 100 µM (inactive) | > 100 µM (inactive) | > 100 µM (inactive) | > 100 µM (inactive) | > 100 µM (inactive) | > 100 µM (inactive) | > 100 µM (inactive) | > 100 µM (inactive) | > 100 µM (inactive) | > 100 µM (inactive) | > 100 µM (inactive) | > 100 µM (inactive) | > 100 µM (inactive) | > 100 µM (inactive) | > 100 µM (inactive) | > 100 µM (inactive) | > 100 µM (inactive) | > 100 µM (inactive) |
| COCCOCCOCCOc1ccc(C(C#N)N(CCc2ccccc2)C(=O)c2cc(C(=O)N(CCc3ccccc3)C(C#N)c3ccc(OCCOCCOCCOC)cc3)cc(C(=O)N(CCc3ccccc3)C(C#N)c3ccc(OCCOCCOCCOC)cc3)c2)cc1 (stereo not given) | > 100 µM (inactive) | > 100 µM (inactive) | > 100 µM (inactive) | > 100 µM (inactive) | > 100 µM (inactive) | > 100 µM (inactive) | > 100 µM (inactive) | > 100 µM (inactive) | > 100 µM (inactive) | > 100 µM (inactive) | > 100 µM (inactive) | > 100 µM (inactive) | > 100 µM (inactive) | > 100 µM (inactive) | > 100 µM (inactive) | – | > 100 µM (inactive) | > 100 µM (inactive) | > 100 µM (inactive) | > 100 µM (inactive) |
| CCN1CCCCCCCCCC(=N/O)/C(=N\O)C1 | > 100 µM (inactive) | > 100 µM (inactive) | > 100 µM (inactive) | > 100 µM (inactive) | > 100 µM (inactive) | > 100 µM (inactive) | > 100 µM (inactive) | > 100 µM (inactive) | > 100 µM (inactive) | – | > 100 µM (inactive) | > 100 µM (inactive) | > 100 µM (inactive) | – | > 100 µM (inactive) | > 100 µM (inactive) | > 100 µM (inactive) | > 100 µM (inactive) | > 100 µM (inactive) | > 100 µM (inactive) |
| COCCOCCOC1=C(Cl)C(=O)c2c(O)ccc(O)c2C1=O | 1.97 µM (inactive) | 0.287 µM (active) | 1.65 µM (inactive) | 1.52 µM (inactive) | 0.303 µM (active) | 1.63 µM (inactive) | 1.12 µM (active) | 0.399 µM (active) | 15.6 µM (inactive) | 1.03 µM (active) | 2.62 µM (inactive) | 2.33 µM (inactive) | 9.04 µM (inactive) | 19 µM (inactive) | 1.44 µM (inactive) | 1.27 µM (inactive) | 1.68 µM (inactive) | 1.71 µM (inactive) | 2.48 µM (inactive) | 1.59 µM (inactive) |
| CC1(C)OCC(C2OC3OC(C)(C)OC3C2c2ccccc2)O1 (stereo not given) | 50.7 µM (inactive) | 32.8 µM (inactive) | 42.2 µM (inactive) | 32.1 µM (inactive) | 22.4 µM (inactive) | 34.4 µM (inactive) | 58.6 µM (inactive) | 28.8 µM (inactive) | 50.6 µM (inactive) | 21.2 µM (inactive) | 41.1 µM (inactive) | 41.5 µM (inactive) | 91.6 µM (inactive) | > 100 µM (inactive) | 48.3 µM (inactive) | – | 51.9 µM (inactive) | 17.1 µM (inactive) | 22.2 µM (inactive) | 33.7 µM (inactive) |
| CN1CCC[N+](C)=C1c1ccccc1 | > 100 µM (inactive) | > 100 µM (inactive) | > 100 µM (inactive) | > 100 µM (inactive) | > 100 µM (inactive) | > 100 µM (inactive) | > 100 µM (inactive) | > 100 µM (inactive) | > 100 µM (inactive) | > 100 µM (inactive) | > 100 µM (inactive) | > 100 µM (inactive) | > 100 µM (inactive) | > 100 µM (inactive) | > 100 µM (inactive) | > 100 µM (inactive) | > 100 µM (inactive) | > 100 µM (inactive) | > 100 µM (inactive) | > 100 µM (inactive) |
| C[Si](C)(OCCS(=O)(=O)O)C1S(=O)(=O)OCCOS1(=O)=O | 36.6 µM (inactive) | 0.495 µM (active) | > 100 µM (inactive) | > 100 µM (inactive) | 30.3 µM (inactive) | > 100 µM (inactive) | 36.1 µM (inactive) | 38.4 µM (inactive) | 20.5 µM (inactive) | > 100 µM (inactive) | > 100 µM (inactive) | > 100 µM (inactive) | > 100 µM (inactive) | 79.4 µM (inactive) | 21.7 µM (inactive) | 27.7 µM (inactive) | 35.9 µM (inactive) | 49.5 µM (inactive) | 53.8 µM (inactive) | 48.2 µM (inactive) |

Source: ChEMBL document CHEMBL1201862, “PubChem BioAssay data set” (2004)
